The values below come from ChEMBL document CHEMBL4417635, “2-hydroxyarylamide derivative or pharmaceutically acceptable salt thereof, preparation method thereof, and pharmaceutical composition for preventing or treating cancer containing same as active ingredient” (2013).

The target of experiment [1] is Transmembrane protease serine 4 (Homo sapiens) (UniProt Q9NRS4). As to the kind of experiment: Inhibition of TMPRSS4 serine protease domain (Val 205 to Leu 437 residues) (unknown origin) expressed in Escherichia coli BL21 (DE3) at 10 uM using […]-Gln-Ala-Arg-7-amido-4-methylcoumarin hydrochloride substrate and measured for 5 mins at 5 mins intervals by fluorescence based assay relative to control.

Experiment [2] has the same target. As to the kind of experiment: Inhibition of TMPRSS4 serine protease domain (Val 205 to Leu 437 residues) (unknown origin) expressed in Escherichia coli BL21 (DE3) at 30 uM using […]-Gln-Ala-Arg-7-amido-4-methylcoumarin hydrochloride substrate and measured for 5 mins at 5 mins intervals by fluorescence based assay relative to control.
The target is the same in experiment [3]. As to the kind of experiment: Inhibition of TMPRSS4 serine protease domain (Val 205 to Leu 437 residues) (unknown origin) expressed in Escherichia coli BL21 (DE3) using […]-Gln-Ala-Arg-7-amido-4-methylcoumarin hydrochloride substrate and measured for 5 mins at 5 mins intervals by fluorescence based assay relative to control.
Experiment [4] has the same target. As to the kind of experiment: Inhibition of TMPRSS4 serine protease domain (Val 205 to Leu 437 residues) (unknown origin) expressed in Escherichia coli BL21 (DE3) at 100 uM using […]-Gln-Ala-Arg-7-amido-4-methylcoumarin hydrochloride substrate and measured for 5 mins at 5 mins intervals by fluorescence based assay relative to control.

Transmembrane protease serine 4 (Homo sapiens), sequence (Q9NRS4 whole entry, the tested form may be a part): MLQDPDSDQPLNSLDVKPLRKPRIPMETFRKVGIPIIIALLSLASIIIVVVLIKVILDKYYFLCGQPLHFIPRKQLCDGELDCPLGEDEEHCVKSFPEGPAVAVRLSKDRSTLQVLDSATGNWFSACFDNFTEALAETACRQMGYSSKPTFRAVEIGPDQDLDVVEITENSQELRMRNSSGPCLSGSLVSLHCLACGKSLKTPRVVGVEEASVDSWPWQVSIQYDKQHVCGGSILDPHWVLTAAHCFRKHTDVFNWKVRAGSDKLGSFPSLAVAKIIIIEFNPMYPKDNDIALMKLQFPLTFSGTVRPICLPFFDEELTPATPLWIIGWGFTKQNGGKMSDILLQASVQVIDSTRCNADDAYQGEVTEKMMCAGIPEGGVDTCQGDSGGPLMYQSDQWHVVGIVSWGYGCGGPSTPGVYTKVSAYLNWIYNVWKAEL

On to `Cc1ccc(O)c(C(=O)Nc2cc(C(F)(F)F)cc(C(F)(F)F)c2)c1`, for which the inhibition in experiment [1] was 0%; in experiment [2], 64%; in experiment [3], “Dose-dependent effect”.

`N#Cc1ccc(NC(=O)c2cc(Cl)ccc2O)cc1`: the inhibition in experiment [4] was 69%; in experiment [2], 29%; in experiment [3], “Dose-dependent effect”.

With `O=C(Nc1cc(C(F)(F)F)ccc1Br)c1cc(Cl)ccc1O`, the inhibition in experiment [1] was 40%; in experiment [2], 100%; in experiment [3], “Dose-dependent effect”.

With `O=C(Nc1cc(C(F)(F)F)cc(C(F)(F)F)c1)c1cccc(Cl)c1O`, the inhibition is 61% in experiment [1], 93% in experiment [2] and “Dose-dependent effect” in experiment [3].

For the compound `O=C(Nc1cc(C(F)(F)F)cc(C(F)(F)F)c1)c1cnc2ccccc2c1O`, the inhibition in experiment [1] is 0%; in experiment [2], 0%; in experiment [3], “Dose-dependent effect”.

Turning to `O=C(Nc1cc(C(F)(F)F)ccc1C(F)(F)F)c1cc(Cl)ccc1O`, the inhibition in experiment [1] is 46%; in experiment [2] it was 54%; in experiment [3], “Dose-dependent effect”.

In the case of `O=C(Nc1ccncc1Cl)c1cc(Cl)ccc1O`, the values for the inhibition in experiment [2] and in experiment [3] were 8% and “Dose-dependent effect”, respectively.

For `O=C(Nc1cc(C(F)(F)F)cc(C(F)(F)F)c1)c1ccccc1O`, the inhibition is 0% in experiment [1], 20% in experiment [2] and “Dose-dependent effect” in experiment [3].

As to `O=C(Nc1cccc(C(F)(F)F)c1)c1cc(Cl)ccc1O`, the figures for the inhibition in experiment [1], in experiment [2] and in experiment [3] were 37%, 91% and “Dose-dependent effect”, respectively.

For `O=C(Nc1cc(C(F)(F)F)cc(C(F)(F)F)c1)c1cc(-c2ccc(F)cc2F)ccc1O`, the figures for the inhibition in experiment [1], in experiment [2] and in experiment [3] were 5%, 31% and “Dose-dependent effect”, respectively.

Consider `O=C(Nc1ccccn1)c1cc(Cl)ccc1O`, for which the inhibition in experiment [4] was 11%; in experiment [2], 0%; in experiment [3], “Dose-dependent effect”.

In the case of `CC(=O)Nc1ccc(O)c(C(=O)Nc2cc(C(F)(F)F)cc(C(F)(F)F)c2)c1`, the figures for the inhibition in experiment [1], in experiment [2] and in experiment [3] were 0%, 0% and “Dose-dependent effect”, respectively.

Take `NC(=O)c1ccc(O)c(C(=O)Nc2cc(C(F)(F)F)cc(C(F)(F)F)c2)c1`: the inhibition was 0% in experiment [1], 21% in experiment [2] and “Dose-dependent effect” in experiment [3].

For `O=C(Nc1cc(Cl)cc(Cl)c1)c1cc(Cl)ccc1O`, the inhibition in experiment [1] is 15%; in experiment [2], 58%; in experiment [3], “Dose-dependent effect”.

Turning to `O=C(Nc1cc(C(F)(F)F)cc(C(F)(F)F)c1)c1cc(Br)ccc1O`, the inhibition in experiment [1] is 54%; in experiment [2] it was 84%; in experiment [3], “Dose-dependent effect”.

As for `Cc1cc(C)cc(NC(=O)c2cc(Cl)ccc2O)c1`, the results for the inhibition in experiment [4], in experiment [2] and in experiment [3] were 56%, 44% and “Dose-dependent effect”, respectively.

Take `O=C(Nc1nc(C(F)(F)F)cs1)c1cc(Cl)ccc1O`: the figures for the inhibition in experiment [4], in experiment [2] and in experiment [3] were 100%, 61% and “Dose-dependent effect”, respectively.

`O=C(Nc1ccnc(Cl)c1)c1cc(Cl)ccc1O`: the results for the inhibition in experiment [4], in experiment [2] and in experiment [3] were 21%, 35% and “Dose-dependent effect”, respectively.

As for `O=C(NCc1cc(C(F)(F)F)cc(C(F)(F)F)c1)c1cc(Cl)ccc1O`, the inhibition in experiment [1] was 36%; in experiment [2], 63%; in experiment [3] it was “Dose-dependent effect”.

Regarding `O=C(Nc1ccc(Cl)nc1)c1cc(Cl)ccc1O`, the inhibition was 39% in experiment [4], 6% in experiment [2] and “Dose-dependent effect” in experiment [3].

With `Nc1ccc(O)c(C(=O)Nc2cc(C(F)(F)F)cc(C(F)(F)F)c2)c1`, the inhibition in experiment [1] was 3%; in experiment [2], 30%; in experiment [3], “Dose-dependent effect”.

Take `O=C(Nc1cc(C(F)(F)F)cc(C(F)(F)F)c1)c1cc(F)ccc1O`: the inhibition is 0% in experiment [1], 55% in experiment [2] and “Dose-dependent effect” in experiment [3].

In the case of `Cc1cc(C)nc(NC(=O)c2cc(Cl)ccc2O)n1`, the inhibition is 0% in experiment [4], 0% in experiment [2] and “Dose-dependent effect” in experiment [3].

For `Cc1cc(Cl)cc(C(=O)Nc2cc(C(F)(F)F)cc(C(F)(F)F)c2)c1O`, the values for the inhibition in experiment [1], in experiment [2] and in experiment [3] were 33%, 78% and “Dose-dependent effect”, respectively.

With `O=C(Nc1ccccc1)c1cc(Cl)ccc1O`, the inhibition is 75% in experiment [4], 13% in experiment [2] and “Dose-dependent effect” in experiment [3].

On to `O=C(Nc1cc(C(F)(F)F)cc(C(F)(F)F)c1Cl)c1cc(Cl)ccc1O`, for which the inhibition in experiment [1] was 43%; in experiment [2], 100%; in experiment [3], “Dose-dependent effect”.

Consider `CC(=O)Oc1ccc(Cl)cc1C(=O)Nc1cc(C(F)(F)F)cc(C(F)(F)F)c1`, for which the inhibition in experiment [1] was 0%; in experiment [2], 4%; in experiment [3], “Dose-dependent effect”.

As to `O=C(Nc1ccc(C(F)(F)F)cc1)c1cc(Cl)ccc1O`, the inhibition in experiment [1] is 22%; in experiment [2] it was 100%; in experiment [3], “Dose-dependent effect”.

On to `O=C(Nc1ncccn1)c1cc(Cl)ccc1O`, for which the inhibition in experiment [4] is 2%; in experiment [2], 0%; in experiment [3] it was “Dose-dependent effect”.

`O=C(Nc1ccc(C(F)(F)F)cn1)c1cc(Cl)ccc1O`: the inhibition in experiment [4] was 47%; in experiment [2], 25%; in experiment [3] it was “Dose-dependent effect”.

Turning to `O=C(Nc1cc(C(F)(F)F)cc(C(F)(F)F)c1)c1cc(Cl)cnc1O`, the inhibition is 0% in experiment [1], 19% in experiment [2] and “Dose-dependent effect” in experiment [3].

Consider `O=C(Nc1nccs1)c1cc(Cl)ccc1O`, for which the results for the inhibition in experiment [4], in experiment [2] and in experiment [3] were 90%, 44% and “Dose-dependent effect”, respectively.

`O=C(Nc1cc(Cl)c(Cl)c(Cl)c1)c1cc(Cl)ccc1O`: the inhibition in experiment [1] was 6%; in experiment [2], 23%; in experiment [3] it was “Dose-dependent effect”.

As for `O=C(Nc1ccc(C(F)(F)F)c(C(F)(F)F)c1)c1cc(Cl)ccc1O`, the inhibition in experiment [1] is 37%; in experiment [2], 59%; in experiment [3], “Dose-dependent effect”.

Turning to `O=C(Nc1c(F)c(F)nc(F)c1F)c1cc(Cl)ccc1O`, the figures for the inhibition in experiment [4], in experiment [2] and in experiment [3] were 51%, 31% and “Dose-dependent effect”, respectively.

Regarding `O=C(Nc1cc(C(F)(F)F)cc(C(F)(F)F)c1)c1ccc(C(F)(F)F)cc1O`, the inhibition was 32% in experiment [1], 79% in experiment [2] and “Dose-dependent effect” in experiment [3].

Regarding `O=C(Nc1cc(C(F)(F)F)c(Br)c(C(F)(F)F)c1)c1cc(Cl)ccc1O`, the inhibition in experiment [1] is 58%; in experiment [2], 85%; in experiment [3] it was “Dose-dependent effect”.

As for `Cc1csc(NC(=O)c2cc(Cl)ccc2O)n1`, the inhibition in experiment [4] was 67%; in experiment [2], 0%; in experiment [3], “Dose-dependent effect”.

As to `COc1ccc(O)c(C(=O)Nc2cc(C(F)(F)F)cc(C(F)(F)F)c2)c1`, the inhibition in experiment [1] is 0%; in experiment [2], 53%; in experiment [3], “Dose-dependent effect”.

Regarding `O=C(Nc1cc(C(F)(F)F)cc(C(F)(F)F)c1)c1cc(Cl)cc(Cl)c1O`, the results for the inhibition in experiment [1], in experiment [2] and in experiment [3] were 100%, 100% and “Dose-dependent effect”, respectively.

Take `N#Cc1ccc(O)c(C(=O)Nc2cc(C(F)(F)F)cc(C(F)(F)F)c2)c1`: the inhibition in experiment [1] was 15%; in experiment [2] it was 53%; in experiment [3] it was “Dose-dependent effect”.

With `COc1c(C(F)(F)F)cc(NC(=O)c2cc(Cl)ccc2O)cc1C(F)(F)F`, the figures for the inhibition in experiment [1], in experiment [2] and in experiment [3] were 56%, 80% and “Dose-dependent effect”, respectively.

On to `Cc1c(C(F)(F)F)cc(NC(=O)c2cc(Cl)ccc2O)cc1C(F)(F)F`, for which the inhibition in experiment [1] was 51%; in experiment [2], 94%; in experiment [3], “Dose-dependent effect”.

Turning to `O=C(Nc1cc(C(F)(F)F)cc(C(F)(F)F)c1)c1cc(Cl)ccc1OCc1ccccc1`, the inhibition was 0% in experiment [1], 6% in experiment [2] and “Dose-dependent effect” in experiment [3].

Regarding `O=C(Nc1cc(C(F)(F)F)cc(C(F)(F)F)c1)c1ccc(Cl)cc1O`, the inhibition in experiment [1] was 29%; in experiment [2] it was 74%; in experiment [3] it was “Dose-dependent effect”.

As to `O=C(Nc1cccc(C(F)(F)F)c1C(F)(F)F)c1cc(Cl)ccc1O`, the results for the inhibition in experiment [1], in experiment [2] and in experiment [3] were 29%, 77% and “Dose-dependent effect”, respectively.

In the case of `O=C(Nc1cc(C(F)(F)F)cc(C(F)(F)F)c1)c1cc([N+](=O)[O-])ccc1O`, the results for the inhibition in experiment [1], in experiment [2] and in experiment [3] were 33%, 78% and “Dose-dependent effect”, respectively.
